Source: patent US9409952B2, “Peptide-compound cyclization method” (Chugai Seiyaku Kabushiki Kaisha, priority 2011, dated 2016)
Positions of bridges follow the written chain, without caps; N, C: chain ends. Non-standard residues stand in square brackets, D forms with d. Residues, ends and D or L forms follow the SMILES beside them. *: point of attachment. NMeF = CN[C@@H](Cc1ccccc1)C(=O)O; NMeI = CC[C@H](C)[C@H](NC)C(=O)O; NMeL = CN[C@@H](CC(C)C)C(=O)O; Phg = N[C@H](C(=O)O)c1ccccc1; NMeV = CN[C@H](C(=O)O)C(C)C; NMeA = CN[C@@H](C)C(=O)O; Piperidide = C1CCN(*)CC1; dNMeA = CN[C@H](C)C(=O)O; Aib = CC(C)(N)C(=O)O; Sar = CNCC(=O)O; tBu = CC(C)(C)*

Tests used:
[1] = PAMPA (parallel artificial membrane permeability assay); assay type: in vitro ADME; settings: membrane permeation rate (Pe), 50 mM MOPSO buffer pH 6.5 with 5.0% glycocholic acid, 37° C., 18 hours; for Papp at 18 hours, 50 µM: PAMPA, read-out: iPAMPA Pe
Summary of the method: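 Artificial membrane was 10% (w/v) egg lecithin plus 0.5% (w/v) cholesterol in dodecane on a PVDF filter. A 10 mM DMSO stock was added at 0.5% (v/v) to donor buffer (50 mM MOPSO, pH 6.5, 5.0% glycocholic acid). After 18 h at 37 °C, LC/MS or LC/UV gave donor and acceptor levels for Pe.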

[2] = Metabolic stability in human hepatic microsome; assay type: in vitro ADME; settings: microsomes, pH 7.4; human hepatic microsome, NADPH(+); read-out: CL NADPH(+)

Structure (SMILES) | Papp at 18 hours, 50 µM [1] | microsomal CLint at 1 uM [2] | iPAMPA Pe [1]
CC(C)C[C@H]1C(=O)NCC(=O)N[C@H](C(=O)N2CCCCC2)CC(=O)N[C@@H](c2ccccc2)C(=O)N[C@@H]([C@@H](C)O)C(=O)N(C)[C@@H](C)C(=O)N(C)[C@@H](Cc2ccccc2)C(=O)N(C)[C@@H](Cc2ccccc2)C(=O)N[C@@H](COC(C)(C)C)C(=O)N1C [DP-563] ([Phg]T[NMeA][NMeF][NMeF]S(tBu)[NMeL]GD-Piperidide; lactam N-9) | 35 ×10⁻⁶ cm/s | 111 µL/min/mg | 
CC[C@H](C)[C@H]1C(=O)NCC(=O)N(C)[C@@H](CC(C)C)C(=O)N[C@@H]([C@@H](C)O)C(=O)N2CCC[C@H]2C(=O)NC(C)(C)C(=O)N[C@H](C(=O)N2CCCCC2)CC(=O)N(C)[C@@H](C)C(=O)N[C@@H](Cc2ccccc2)C(=O)N(C)[C@@H](CC(C)C)C(=O)N[C@@H](CC(C)C)C(=O)N1C [DP-564] ([NMeA]F[NMeL]L[NMeI]G[NMeL]TP[Aib]D-Piperidide; lactam N-11) | 27 ×10⁻⁶ cm/s | 80 µL/min/mg | 
CC(C)C[C@@H]1NC(=O)[C@H](Cc2ccccc2)N(C)C(=O)CN(C)C(=O)[C@H]([C@@H](C)O)NC(=O)[C@H](CC(C)C)N(C)C(=O)[C@H](C)NC(=O)C[C@@H](C(=O)N(C)[C@@H](Cc2ccccc2)C(=O)N(C)[C@@H](C)C(=O)N2CCC[C@H]2C(=O)N(C)[C@@H](Cc2ccccc2)C(=O)N[C@@H](C)C(=O)N2CCCCC2)NC1=O [DP-565] (A[NMeL]T[Sar][NMeF]LD[NMeF][NMeA]P[NMeF]A-Piperidide; lactam N-7) | 18 ×10⁻⁶ cm/s | 56 µL/min/mg | 
CC(C)C[C@@H]1NC(=O)[C@H](Cc2ccccc2)N(C)C(=O)CN(C)C(=O)[C@H]([C@@H](C)O)NC(=O)[C@H](CC(C)C)N(C)C(=O)[C@H](C)NC(=O)C[C@@H](C(=O)N(C)[C@@H](CC(C)C)C(=O)N[C@H](C(=O)N(C)[C@@H](C)C(=O)N[C@@H](C)C(=O)N2CCCCC2)C(C)C)NC1=O [DP-566] (A[NMeL]T[Sar][NMeF]LD[NMeL]V[NMeA]A-Piperidide; lactam N-7) | 11 ×10⁻⁶ cm/s | 38 µL/min/mg | 
CC[C@H](C)[C@H](NC(=O)[C@H](Cc1ccccc1)N(C)C(=O)[C@@H]1CC(=O)N[C@@H](C)C(=O)N(C)[C@@H](CC(C)C)C(=O)N[C@@H]([C@@H](C)O)C(=O)N(C)CC(=O)N(C)[C@@H](Cc2ccccc2)C(=O)N[C@@H](CC(C)C)C(=O)N1)C(=O)N1CCCCC1 [DP-567] (A[NMeL]T[Sar][NMeF]LD[NMeF]I-Piperidide; lactam N-7) | 30 ×10⁻⁶ cm/s | 224 µL/min/mg | 
CC[C@H](C)[C@@H]1NC(=O)[C@H](Cc2ccccc2)N(C)C(=O)[C@@H](C)NC(=O)C[C@@H](C(=O)N(C)[C@@H](CC(C)C)C(=O)NCC(=O)N(C)[C@@H](CC(C)C)C(=O)N[C@@H](C)C(=O)N2CCCCC2)NC(=O)[C@H](C(C)C)NC(=O)CN(C)C(=O)[C@H]([C@@H](C)O)NC1=O [DP-568] ([dA][NMeF]IT[Sar]VD[NMeL]G[NMeL]A-Piperidide; lactam N-7) | 4.4 ×10⁻⁶ cm/s | 30 µL/min/mg | 
CC[C@H](C)[C@@H]1NC(=O)[C@H](Cc2ccccc2)N(C)C(=O)[C@@H](C)NC(=O)C[C@@H](C(=O)N(C)[C@@H](Cc2ccccc2)C(=O)N(C)[C@@H](Cc2ccccc2)C(=O)N[C@@H](C)C(=O)N2CCCCC2)NC(=O)[C@H](C(C)C)NC(=O)CN(C)C(=O)[C@H]([C@@H](C)O)NC1=O [DP-569] ([dA][NMeF]IT[Sar]VD[NMeF][NMeF]A-Piperidide; lactam N-7) | 21 ×10⁻⁶ cm/s | 203 µL/min/mg | 
CC(C)C[C@H](NC(=O)CN(C)C(=O)[C@@H]1CC(=O)N[C@H](C)C(=O)N[C@@H](C(C)C)C(=O)N(C)[C@@H](Cc2ccccc2)C(=O)N(C)[C@@H](CC(C)C)C(=O)N(C)[C@@H](C)C(=O)N[C@@H]([C@@H](C)O)C(=O)N[C@@H](Cc2ccccc2)C(=O)N1)C(=O)N1CCCCC1 [DP-571] ([dA]V[NMeF][NMeL][NMeA]TFD[Sar]L-Piperidide; lactam N-8) | 23 ×10⁻⁶ cm/s | 62 µL/min/mg | 
CC[C@H](C)[C@H](NC(=O)[C@H](Cc1ccccc1)N(C)C(=O)[C@@H]1CC(=O)N[C@@H](C)C(=O)N[C@@H](CC(C)C)C(=O)N(C)[C@@H]([C@@H](C)CC)C(=O)N[C@@H](C(C)C)C(=O)N(C)[C@@H](Cc2ccccc2)C(=O)N[C@@H](CC(C)C)C(=O)N(C)[C@@H](Cc2ccccc2)C(=O)N1)C(=O)N1CCCCC1 [DP-573] (AL[NMeI]V[NMeF]L[NMeF]D[NMeF]I-Piperidide; lactam N-8) |  | 72 µL/min/mg | 1.0E−07
CC(C)C[C@@H]1NC(=O)[C@H](C)NC(=O)C[C@@H](C(=O)N(C)[C@@H](C)C(=O)N[C@H](C(=O)N(C)[C@@H](Cc2ccccc2)C(=O)N(C)[C@@H](CC(C)C)C(=O)N[C@@H](C)C(=O)N2CCCCC2)[C@@H](C)O)NC(=O)[C@H](Cc2ccccc2)N(C)C(=O)[C@H](CC(C)C)N(C)C(=O)[C@H](C)NC(=O)[C@H](Cc2ccccc2)N(C)C(=O)[C@H](CC(C)C)N(C)C1=O [DP-574] (AL[NMeL][NMeF]A[NMeL][NMeF]D[NMeA]T[NMeF][NMeL]A-Piperidide; lactam N-8) | 1.2 ×10⁻⁶ cm/s | 113 µL/min/mg | 
CC(C)C[C@@H](C(=O)N[C@@H](C)C(=O)N1CCCCC1)N(C)C(=O)[C@@H]1CC(=O)N[C@H](C(C)C)C(=O)N[C@@H]([C@@H](C)O)C(=O)N(C)[C@@H](C)C(=O)N(C)[C@@H](Cc2ccccc2)C(=O)N(C)[C@@H](Cc2ccccc2)C(=O)N[C@@H](COC(C)(C)C)C(=O)N(C)[C@@H](CC(C)C)C(=O)NCC(=O)N1 [DP-575] ([dV]T[NMeA][NMeF][NMeF]S(tBu)[NMeL]GD[NMeL]A-Piperidide; lactam N-9) | 28 ×10⁻⁶ cm/s | 70 µL/min/mg | 
CC[C@H](C)[C@H](NC(=O)[C@H](CC(C)C)N(C)C(=O)CN(C)C(=O)[C@@H]1CC(=O)N[C@H](C(C)C)C(=O)N[C@@H](C)C(=O)N[C@@H]([C@@H](C)O)C(=O)N(C)[C@@H](C)C(=O)N[C@@H](Cc2ccccc2)C(=O)N(C)[C@@H](CC(C)C)C(=O)N(C)[C@@H](Cc2ccccc2)C(=O)N(C)[C@@H](CC(C)C)C(=O)N1)C(=O)N1CCCCC1 [DP-576] ([dV]AT[NMeA]F[NMeL][NMeF][NMeL]D[Sar][NMeL]I-Piperidide; lactam N-9) | 15 ×10⁻⁶ cm/s | 17 µL/min/mg | 
CC(C)C[C@H](NC(=O)[C@@H](NC(=O)[C@@H]1CCCN1C(=O)[C@@H]1CC(=O)N[C@H](C)C(=O)N(C)[C@@H](C)C(=O)N(C)[C@@H](Cc2ccccc2)C(=O)N(C)[C@@H](CC(C)C)C(=O)N[C@@H]([C@@H](C)O)C(=O)N(C)CC(=O)N(C)[C@@H](CC(C)C)C(=O)N[C@@H](COC(C)(C)C)C(=O)N(C)[C@@H](CC(C)C)C(=O)N1)C(C)C)C(=O)N1CCCCC1 [DP-579] ([dA][NMeA][NMeF][NMeL]T[Sar][NMeL]S(tBu)[NMeL]DPVL-Piperidide; lactam N-10) | 24 ×10⁻⁶ cm/s | 19 µL/min/mg | 
CC[C@H](C)[C@@H]1NC(=O)[C@H](Cc2ccccc2)N(C)C(=O)[C@H](CC(C)C)NC(=O)[C@H](CC(C)C)NC(=O)[C@H](Cc2ccccc2)NC(=O)[C@H](CC(C)C)NC(=O)[C@@H](C)NC(=O)C[C@@H](C(=O)N(C)[C@@H](C)C(=O)N[C@@H](CC(C)C)C(=O)N[C@@H](C)C(=O)N[C@H](C(=O)N2CCCCC2)[C@@H](C)CC)NC(=O)[C@H](Cc2ccccc2)NC(=O)[C@H]([C@@H](C)O)NC1=O [DP-580] ([dA]LFLL[NMeF]ITFD[NMeA]LAI-Piperidide; lactam N-10) | 0.13 ×10⁻⁶ cm/s | 54 µL/min/mg | 
CC[C@H](C)[C@@H]1NC(=O)[C@H](CC(C)C)N(C)C(=O)CN(C)C(=O)[C@H](Cc2ccccc2)NC(=O)[C@H](C(C)C)N(C)C(=O)[C@H](C)N(C)C(=O)[C@H]([C@@H](C)O)NC(=O)[C@H](C)N(C)C(=O)C[C@@H](C(=O)N(C)[C@@H](CC(C)C)C(=O)N[C@H](C(=O)N(C)[C@@H](CC(C)C)C(=O)N[C@@H](C)C(=O)N2CCCCC2)[C@@H](C)O)NC(=O)[C@H](C)NC1=O [DP-581] ([NMeA]T[NMeA][NMeV]F[Sar][NMeL]IAD[NMeL]T[NMeL]A-Piperidide; lactam N-10) | 2.7 ×10⁻⁶ cm/s | 7 µL/min/mg | 
CC(C)C[C@@H](C(=O)N[C@@H](C)C(=O)N1CCCCC1)N(C)C(=O)[C@H](C)N(C)C(=O)[C@@H]1CC(=O)N[C@H](C(C)C)C(=O)N(C)[C@@H](C)C(=O)N(C)[C@@H](CC(C)C)C(=O)N(C)[C@@H](CC(C)C)C(=O)N(C)CC(=O)N(C)[C@@H](Cc2ccccc2)C(=O)N[C@@H](C)C(=O)N(C)[C@@H](Cc2ccccc2)C(=O)N(C)[C@@H](CC(C)C)C(=O)N[C@@H]([C@@H](C)O)C(=O)N1 [DP-582] ([dV][NMeA][NMeL][NMeL][Sar][NMeF]A[NMeF][NMeL]TD[NMeA][NMeL]A-Piperidide; lactam N-11) | 21 ×10⁻⁶ cm/s | 12 µL/min/mg | 
CC[C@H](C)[C@@H](C(=O)N[C@@H](Cc1ccccc1)C(=O)N1CCCCC1)N(C)C(=O)[C@@H]1CC(=O)N(C)[C@H](C)C(=O)N(C)[C@@H](CC(C)C)C(=O)N[C@@H](Cc2ccccc2)C(=O)N[C@@H]([C@@H](C)O)C(=O)N(C)CC(=O)N(C)[C@@H](C)C(=O)N(C)[C@@H](C(C)C)C(=O)N[C@@H](C)C(=O)N(C)[C@@H](CC(C)C)C(=O)N[C@@H](CC(C)C)C(=O)N1 [DP-583] ([dNMeA][NMeL]FT[Sar][NMeA][NMeV]A[NMeL]LD[NMeI]F-Piperidide; lactam N-11) | 25 ×10⁻⁶ cm/s | 27 µL/min/mg | 
